Source: patent US20250228239A1, “MOLECULES HAVING PESTICIDAL UTILITY, AND INTERMEDIATES, COMPOSITIONS, AND PROCESSES, RELATED THERETO” (priority 2024, published 2025)
Like-named read-outs stand apart in the source and are kept apart here.

Key:
Format in all cases: in vivo
[1] = test system: Cabbage Looper (Trichoplusia ni, TRIPNI); assay: Bioassays on Cabbage Looper (CL), 128-well diet tray assay; settings: Trichoplusia ni; for mortality at 50 µg/cm2: 168 h, second instar larvae, 50 μg/cm^2 of test molecule on artificial diet, 25° C., five to seven days, average of eight wells, read-out: CL % Control (or Mortality) rating
Method in brief: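 Each of eight wells receives artificial diet treated at 50 μg/cm^2 with the test molecule, then one to five second-instar larvae. Incubation runs five to seven days at 25° C with a 14:10 light-dark cycle under vented covers. Mortality is scored per well as a percentage and averaged.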

[2] = test system: Yellow Fever Mosquito (Aedes aegypti, AEDSAE); settings: for YFM rating: Table ABC / ABC-DP rating; for YFM % Control (or Mortality) rating: about 1 day-old larvae, 4000 ppm master solution diluted with 90:10 water/acetone, 15 μL per well plus 220 μL larval mixture, 3 days
Method in brief: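 Compounds from DMSO master plates (4000 ppm stock) diluted in 90:10 water/acetone, then dispensed into six replicate plates and infested with ~1-day-old Aedes aegypti larvae in liver-powder water. Held covered at room temperature for 3 days; each well scored for larval mortality and graded on a rating scale.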

[3] = test system: Beet Armyworm (Spodoptera exigua, LAPHEG); assay: Bioassays on Beet Armyworm (BAW), 128-well diet tray assay; settings: Spodoptera exigua; for mortality at 50 µg/cm2: 168 h, second instar larvae, 50 μg/cm^2 of test molecule on artificial diet, 25° C., five to seven days, average of eight wells, read-out: BAW % Control (or Mortality) rating
Method in brief: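 Eight diet wells per compound were treated at 50 μg/cm^2 (acetone-water 90:10), dried, then infested with 1–5 second-instar larvae each. After five to seven days at 25 °C under 14:10 photoperiod, mortality was scored and averaged across wells.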

[4] = Cabbage Looper, Table ABC / ABC-DP rating, read-out: CL rating
[5] = Beet Armyworm, Table ABC / ABC-DP rating, read-out: BAW rating
[6] = Table ABC: Biological Results, species CL, read-out: CL
[7] = Table ABC: Biological Results, species YFM
[8] = Table ABC: Biological Results, species BAW, read-out: BAW
[9] = Cabbage Looper, rating class, read-out: CL
[10] = Yellow Fever Mosquito, rating class
[11] = Beet Armyworm, rating class, read-out: BAW

SMILES: Cc1cc(N)ccc1NC(=O)c1cc(NC(=O)[C@H]2[C@H](c3cc(Cl)cc(Cl)c3)C2(Cl)Cl)ccc1Cl (relative stereo) [DP4, trans-N-(4-Amino-2-methylphenyl)-2-chloro-5-(2,2-dichloro-3-(3,5-dichlorophenyl)cyclopropane-1-carboxamido)benzamide]
- mortality at 50 µg/cm2 [1]: 50 to 100%
- pest or weed control at 50 µg/cm2 [1, 4]: 50 to 100%
- YFM rating ([2]; Yellow Fever Mosquito): A (80–100)
- YFM % Control (or Mortality) rating [2]: A (80–100)
- mortality at 50 µg/cm2 [3]: 50 to 100%
- pest or weed control at 50 µg/cm2 [3, 5]: 50 to 100%

SMILES: CC(OC(F)(F)F)C(=O)Nc1c(F)ccc(NC(=O)c2cc(NC(=O)[C@H]3[C@H](c4ccc(F)c(Br)c4)C3(Cl)Cl)ccc2Cl)c1F (stereo partly drawn) [F1781, 5-((1R,3R)-3-(3-Bromo-4-fluorophenyl)-2,2-dichlorocyclopropane-1-carboxamido)-2-chloro-N-(2,4-difluoro-3-(2-(trifluoromethoxy)propanamido)phenyl)benzamide]
- pest or weed control at 50 µg/cm2 [1, 4]: 50 to 100%
- YFM rating ([2]; Yellow Fever Mosquito): A (80–100)
- pest or weed control at 50 µg/cm2 [3, 5]: 50 to 100%

SMILES: N#CC1(C(=O)NNC(=O)c2cc(NC(=O)[C@H]3[C@H](c4cc(Cl)cc(Cl)c4)C3(Cl)Cl)ccc2Cl)CC1 (relative stereo) [F2518, trans-2,2-Dichloro-N-(4-chloro-3-(2-(1-cyanocyclopropane-1-carbonyl)hydrazine-1-carbonyl)phenyl)-3-(3,5-dichlorophenyl)cyclopropane-1-carboxamide]
- pest or weed control at 50 µg/cm2 [1, 4]: 50 to 100%
- YFM rating ([2]; Yellow Fever Mosquito): A (80–100)
- pest or weed control at 50 µg/cm2 [3, 5]: 50 to 100%

SMILES: CCCNC(=O)c1c(Cl)ccc(NC(=O)[C@H]2[C@H](c3ccc(F)c(Cl)c3)C2(Cl)Cl)c1Cl (relative stereo) [F2022, trans-2,6-Dichloro-3-(2,2-dichloro-3-(3-chloro-4-fluorophenyl)cyclopropane-1-carboxamido)-N-propylbenzamide]
- pest or weed control at 50 µg/cm2 [1, 4]: 50 to 100%
- YFM rating ([2]; Yellow Fever Mosquito): A (80–100)
- pest or weed control at 50 µg/cm2 [3, 5]: 50 to 100%

SMILES: O=C(NCC(F)(F)C(F)(F)F)c1c(Cl)ccc(NC(=O)[C@H]2[C@H](c3ccc(F)c(Cl)c3)C2(Cl)Cl)c1Cl (relative stereo) [F2005, trans-2,6-Dichloro-3-(2,2-dichloro-3-(3-chloro-4-fluorophenyl)cyclopropane-1-carboxamido)-N-(2,2,3,3,3-pentafluoropropyl)benzamide]
- pest or weed control at 50 µg/cm2 [1, 4]: 50 to 100%
- YFM rating ([2]; Yellow Fever Mosquito): A (80–100)
- pest or weed control at 50 µg/cm2 [3, 5]: 50 to 100%

SMILES: Nc1c(F)ccc(NC(=O)c2cc(NC(=O)[C@H]3[C@H](c4cc(Cl)cc(S(F)(F)(F)(F)F)c4)C3(Cl)Cl)ccc2Cl)c1F (relative stereo) [F1259, trans-N-(3-Amino-2,4-difluorophenyl)-2-chloro-5-(2,2-dichloro-3-(3-chloro-5-(pentafluoro-λ^6-sulfanyl)phenyl)cyclopropane-1-carboxamido)benzamide]
- pest or weed control at 50 µg/cm2 [1, 6]: 50 to 100%
- YFM [2, 7]: A (80–100)
- pest or weed control at 50 µg/cm2 [3, 8]: 50 to 100%

SMILES: O=C(NN=Cc1ccccc1)c1cc(NC(=O)C2C(c3cc(Cl)cc(Cl)c3)C2(Cl)Cl)ccc1Cl (stereo not drawn) [F3001, trans-N-(3-(2-Benzylidenehydrazine-1-carbonyl)-4-chiorophenyl)-2,2-dichloro-3-(3,5-dichlorophenyl)cyclopropane-1-carboxamide]
- mortality at 50 µg/cm2 [1]: 50 to 100%
- pest or weed control at 50 µg/cm2 [1, 4]: 50 to 100%
- YFM rating ([2]; Yellow Fever Mosquito): A (80–100)
- YFM % Control (or Mortality) rating [2]: A (80–100)
- mortality at 50 µg/cm2 [3]: 50 to 100%
- pest or weed control at 50 µg/cm2 [3, 5]: 50 to 100%

SMILES: CCC(=O)Nc1c(F)ccc(NC(=O)c2cc(NC(=O)[C@H]3[C@H](c4cc(F)cc(C(F)(F)F)c4)C3(Cl)Cl)ccc2Cl)c1F [F1709, 2-Chloro-5-((1R,3R)-2,2-dichloro-3-(3-fluoro-5-(trifluoromethyl)phenyl)cyclopropane-1-carboxamido)-N-(2,4-difluoro-3-propionamidophenyl)benzamide]
- pest or weed control at 50 µg/cm2 [1, 9]: 50 to 100%
- YFM [2, 10]: A (80–100)
- pest or weed control at 50 µg/cm2 [3, 11]: 50 to 100%

SMILES: CC(F)(F)CCC(=O)Nc1c(F)ccc(NC(=O)c2cc(NC(=O)[C@H]3[C@H](c4ccc(F)c(C(F)(F)F)c4)C3(Cl)Cl)ccc2Cl)c1F [F1843, 2-Chloro-5-((1R,3R)-2,2-dichloro-3-(4-fluoro-3-(trifluoromethyl)phenyl)cyclopropane-1-carboxamido)-N-(3-(4,4-difluoropentanamido)-2,4-difluorophenyl)benzamide]
- pest or weed control at 50 µg/cm2 [1, 4]: 50 to 100%
- YFM rating ([2]; Yellow Fever Mosquito): A (80–100)
- pest or weed control at 50 µg/cm2 [3, 5]: 50 to 100%

SMILES: Nc1c(F)ccc(NC(=O)c2cc(NC(=O)[C@H]3[C@H](c4cccc(Cl)c4)C3(Cl)Cl)ccc2Cl)c1F (relative stereo) [F1595, trans-N-(3-Amino-2,4-difluorophenyl)-2-chloro-5-(2,2-dichloro-3-(3-chlorophenyl)cyclopropane-1-carboxamido)benzamide]
- pest or weed control at 50 µg/cm2 [1, 9]: 50 to 100%
- YFM [2, 10]: A (80–100)
- pest or weed control at 50 µg/cm2 [3, 11]: 50 to 100%

SMILES: O=C(Nc1ccc(F)cc1F)c1cc(NC(=O)[C@H]2[C@H](c3cc(Cl)c(F)c(Cl)c3)C2(Cl)Cl)ccc1Cl (relative stereo) [F1172, trans-2-Chloro-5-(2,2-dichloro-3-(3,5-dichloro-4-fluorophenyl)cyclopropane-1-carboxamido)-N-(2,4-difluorophenyl)benzamide]
- pest or weed control at 50 µg/cm2 [1, 6]: 50 to 100%
- YFM [2, 7]: A (80–100)
- pest or weed control at 50 µg/cm2 [3, 8]: 50 to 100%

SMILES: Cc1c(F)cc(NC(=O)[C@H]2[C@H](c3ccc(F)c(Cl)c3)C2(Cl)Cl)cc1C(=O)Nc1ccc(F)cc1 (relative stereo) [F1278, trans-5-(2,2-Dichloro-3-(3-chloro-4-fluorophenyl)cyclopropane-1-carboxamido)-3-fluoro-N-(4-fluorophenyl)-2-methylbenzamide]
- pest or weed control at 50 µg/cm2 [1, 6]: 50 to 100%
- YFM [2, 7]: A (80–100)
- pest or weed control at 50 µg/cm2 [3, 8]: 50 to 100%

SMILES: O=C(Nc1ccc(F)c(NC(=O)C(F)(F)F)c1F)c1cc(NC(=O)[C@H]2[C@H](c3ccc(F)c(C(F)(F)F)c3)C2(Cl)Cl)ccc1Cl [F1169, 2-chloro-5-((1R,3R)-2,2-dichloro-3-(4-fluoro-3-(trifluoromethyl)phenyl)cyclopropane-1-carboxamido)-N-(2,4-difluoro-3-(2,2,2-trifluoroacetamido)phenyl)benzamide]
- pest or weed control at 50 µg/cm2 [1, 6]: 50 to 100%
- YFM [2, 7]: A (80–100)
- pest or weed control at 50 µg/cm2 [3, 8]: 50 to 100%

SMILES: O=C(CCC1CC1)Nc1c(F)ccc(NC(=O)c2cc(NC(=O)[C@H]3[C@H](c4ccc(F)c(C(F)(F)F)c4)C3(Cl)Cl)ccc2Cl)c1F [F1854, 2-Chloro-N-(3-(3-cyclopropylpropanamido)-2,4-difluorophenyl)-5-((1R,3R)-2,2-dichloro-3-(4-fluoro-3-(trifluoromethyl)phenyl)cyclopropane-1-carboxamido)benzamide]
- pest or weed control at 50 µg/cm2 [1, 4]: 50 to 100%
- YFM rating ([2]; Yellow Fever Mosquito): A (80–100)
- pest or weed control at 50 µg/cm2 [3, 5]: 50 to 100%

SMILES: Nc1c(F)ccc(NC(=O)c2cc(NC(=O)[C@H]3[C@H](c4cc(Cl)c(Cl)c(C(F)(F)F)c4)C3(Cl)Cl)ccc2Cl)c1F (relative stereo) [F1149, trans-N-(3-Amino-2,4-difluorophenyl)-2-chloro-5-(2,2-dichloro-3-(3,4-dichloro-5-(trifluoromethyl)phenyl)cyclopropane-1-carboxamido)benzamide]
- pest or weed control at 50 µg/cm2 [1, 6]: 50 to 100%
- YFM [2, 7]: A (80–100)
- pest or weed control at 50 µg/cm2 [3, 8]: 50 to 100%

SMILES: O=C(Nc1ccc(F)cc1F)c1cc(NC(=O)[C@H]2[C@H](c3cc(C(F)(F)F)ccc3Cl)C2(Cl)Cl)ccc1Cl (relative stereo) [F1004, trans-2-Chloro-5-(2,2-dichloro-3-(2-chloro-5-(trifluoromethyl)phenyl)cyclopropane-1-carboxamido)-N-(2,4-difluorophenyl)benzamide]
- pest or weed control at 50 µg/cm2 [1, 6]: 50 to 100%
- YFM [2, 7]: A (80–100)
- pest or weed control at 50 µg/cm2 [3, 8]: 50 to 100%

SMILES: O=C(Nc1ccc(F)c(NC(=O)C(Cl)Cl)c1F)c1cc(NC(=O)[C@H]2[C@H](c3ccc(F)c(C(F)(F)F)c3)C2(Cl)Cl)ccc1Cl [F1174, 2-Chloro-5-((1R,3R)-2,2-dichloro-3-(4-fluoro-3-(trifluoromethyl)phenyl)cyclopropane-1-carboxamido)-N-(3-(2,2-dichloroacetamido)-2,4-difluorophenyl)benzamide]
- pest or weed control at 50 µg/cm2 [1, 6]: 50 to 100%
- YFM [2, 7]: A (80–100)
- pest or weed control at 50 µg/cm2 [3, 8]: 50 to 100%

SMILES: Cc1c(NC(=O)c2cc(NC(=O)[C@H]3[C@H](c4ccc(F)c(C(F)(F)F)c4)C3(Cl)Cl)ccc2Cl)ccc(Br)c1N [F1690, N-(3-Amino-4-bromo-2-methylphenyl)-2-chloro-5-((1R,3R)-2,2-dichloro-3-(4-fluoro-3-(trifluoromethyl)phenyl)cyclopropane-1-carboxamido)benzamide]
- pest or weed control at 50 µg/cm2 [1, 9]: 50 to 100%
- YFM [2, 10]: A (80–100)
- pest or weed control at 50 µg/cm2 [3, 11]: 50 to 100%
